# Patent US5486604A, “Cyclic ADP ribose antagonists” (Regents of the University of Minnesota, priority 1993, dated 1996)
# pEC50, pIC50, pKd: −log10 of the molar value.
# Experiments:
# [1] = system: cADPR-sensitive Ca^+2 release; experiment: cADPR-induced Ca2+ release from L. pictus egg homogenates, Fluo 3; type: biochemical, Lytechinus pictus
# [2] = system: caffeine induced Ca^+2 release; experiment: Caffeine induced Ca2+ release and its potentiation by cADPR, S. purpuratus homogenates; type: biochemical, Strongylocentrotus purpuratus
# Experimental: FIG. 7 Inhibition of the potentiating effect of cADPR on caffeine induced Ca^+2 release. Ca^+2 release from S. purpuratus homogenates (1.25%) was measured using Fluo 3 as Ca^+2 indicator. (a) In the absence of cADPR, addition of 1 mM caffeine induced no Ca^+2 release (curve labeled 0). The presence of 20 nM cADPR (arrow labeled cADPR) greatly potentiated the Ca^+2 releasing activity of 1 mM caffeine (curve labeled 20).
# (§1) Homogenates from Strongylocentrotus purpuratus eggs were prepared as previously described (Lee, H. C. (1991) J. Biol. Chem. 266, 2276-2281, Lee, H. C. (1993) J. Biol. Chem. 268, 293-299). Briefly, eggs were washed once in artificial sea water, twice in Ca^+2 -free sea water containing 1 mM EGTA, twice in Ca^+2 -free sea water without EGTA, once with the homogenization buffer (GluIAG MPM) containing 250 mM N-methylglucamine, 250 mM potassium gluconate, 20 mM HEPES, and 1 mM MgCl2; pH titrated to 7.2 with acetic acid and resuspended with the same medium to 25% (v/v). The following additions were made: 10 μg/ml of leupeptin, 10 μg/ml of aprotinin, 50 μg/ml of soybean trypsin inhibitor, 2 units/ml of creatine kinase, 4 mM phosphocreatine and 0.5 mM ATP. The suspension was chilled on ice for 10-15 min and transferred to a beaker inside a cell disruption bomb (Parr Instrument Co., Ill.). The suspension was mixed continuously with a magnetic stirring bar while nitrogen pressure of 80 psi was applied for 10-30 seconds. The sudden decompression of the suspension as it was released from the bomb effectively homogenized the eggs. The homogenates were centrifuged for 12-14 seconds (13,000×g, 4° C.) in a microfuge (Fisher) and the supernatant was collected and stored frozen at -70 ° C. until use.
# (§2) Frozen egg homogenates prepared as described above were thawed in a 17° C. water bath for 20-30 min and then diluted to 5% with the homogenization medium (GLuIM) containing 2 units/ml of creatine kinase, 4 mM phosphocreatine and 0.5 mM ATP. After incubating at 17° C. for one hour the homogenates were diluted sequentially to 2.5% and finally to 1.25% with the same medium. Following each dilution, the homogenates were incubated at 17° C. for one hour. After the last dilution, fluo 3 was added to a final concentration of 3 μM. Fluorescence was measured at 490 nm excitation and 535 nm emission using a Hitachi spectrofluorimeter (F-2000). Fluo 3 fluorescence intensity is directly related to the Ca^+2 concentration (Dargie, P. J., Agre, M. C., and Lee, Hon. C. (1990) Cell Regulation 1,279-290). In some Figures the Fluo 3 fluorescence intensity was calibrated with the addition of known amounts of Ca^ +2. All assays were done in a curvette maintained at 17° C. with a circulating water bath and its content continuously mixed with a magnetic stirring bar. The volume of homogenate used for each assay was 0.2 ml.
# [3] = system: cADPR-sensitive Ca^+2 release; experiment: cADPR-induced Ca2+ release from S. purpuratus egg homogenates, Fluo 3 as Ca2+ indicator; type: biochemical, Strongylocentrotus purpuratus
# Experimental: FIG. 2 Inhibition of cADPR induced Ca^+2 release by 8-amino-cADPR Ca^+2 release from S. purpuratus homogenates (1.25%) was monitored using Fluo 3 as Ca^+2 indicator. (a) The effect of varying the concentration of cADPR on Ca^+2 release. (b) The inhibition of Ca^+2 release induced by 135 nM of cADPR by pre-treatment of the homogenates with 100 nM 8-amino-cADPR.
# FIG. 3 Competitive inhibition of cADPR dependent Ca^+2 release by 8-amino-cADPR. Ca^+2 release from S. purpuratus homogenates (1.25%) induced by various concentrations of cADPR was measured in the presence and absence of 100 nM 8-amino-cADPR (8-amino-cADPR);
# FIG. 5 Effectiveness of 8-amino-cADPR in blocking Ca^+2 release induced by cADPR. (a) Ca^+2 release from S. purpuratus homogenates (1.25%) induced by the addition of 95 nM cADPR was measured using Fluo 3 as Ca^+2 indicator. (b-d) After the Ca^+2 release had started, increasing amounts of 8-amino-cADPR (8-NH2) were added to give the final concentrations indicated in the Figure;
# as §1, §2
# [4] = system: cADPR binding site; experiment: Specific binding of [32P]cADPR to sea urchin egg microsomes (filtration assay); design: species or system Lytechinus pictus
# Experimental: FIG. 4 Competitive inhibition of ^32 P-cADPR binding by 8-amino-cADPR and cADPR. Specific binding of ^32 P-cADPR to L. pictus microsomes was measured in the presence of various concentrations of cADPR (filled squares) and 8-amino-cADPR (open squares). Total binding in the presence of a high concentration of cADPR (1.2 μM) was taken as non-specific binding (55 cpm) and was subtracted from all the values;
# Specific binding of [^32 P]cADPR to sea urchin egg microsomes was determined by a filtration assay as described previously (Lee, H. C. (1991) J. Biol. Chem. 266, 2276-2281) with some modifications. L. pictus egg homogenates (1 ml) were dialyzed overnight against 1 liter of the homogenization buffer (GluIM listed above). After dialysis, the homogenates were centrifuged for 30 min in a microfuge and the supernatant containing microsomes was collected and diluted 20 fold with GluIM. About 40,000 cpm of [^32 P]cADPR (400 Ci/mmol) and various concentrations of either cADPR or 8-substituted analogs were incubated with the 20 fold diluted microsomes for 10 min at 4° C. in a volume of 0.1 ml. […] The filters were then washed with 4 ml of 10 % polyethylene glycol and the radioactivity on the filters was determined by liquid scintillation counting. […] The specific binding was determined as the total binding minus the binding in the presence of 1.2 μM of unlabeled cADPR. […]
# [5] = system: Ca^+2 release induced by ryanodine; experiment: Ryanodine induced Ca2+ release, S. purpuratus homogenates; type: biochemical, Strongylocentrotus purpuratus
# Experimental: FIG. 8 Inability of 8-amino-cADPR to block Ca^+2 release induced by ryanodine. Ca^+2 release from S. purpuratus homogenates (1.25%) was measured using Fluo 3 as Ca^+2 indicator. Ryanodine and 8-amino-cADPR(8-NH2) were added to the final concentrations as indicated;
# as §1, with “The homogenates were centrifuged for 12-14 seconds (13,000×g, 4° C.) in a microfuge (Fisher) and the supernatant was collected and stored frozen at -70 ° C. until use.” left out
# (§3) Frozen egg homogenates prepared as described above were thawed in a 17° C. water bath for 20-30 min and then diluted to 5% with the homogenization medium (GLuIM) containing 2 units/ml of creatine kinase, 4 mM phosphocreatine and 0.5 mM ATP. […] Fluorescence was measured at 490 nm excitation and 535 nm emission using a Hitachi spectrofluorimeter (F-2000). Fluo 3 fluorescence intensity is directly related to the Ca^+2 concentration (Dargie, P. J., Agre, M. C., and Lee, Hon. C. (1990) Cell Regulation 1,279-290). In some Figures the Fluo 3 fluorescence intensity was calibrated with the addition of known amounts of Ca^ +2. […]
# [6] = system: Ca^+2 induced Ca^+2 release; experiment: cADPR potentiation of divalent cation (Ca2+, Sr2+) induced Ca2+ release, S. purpuratus homogenates; type: biochemical, Strongylocentrotus purpuratus
# Experimental: FIG. 6 Inhibition of the potentiating effect of cADPR on Ca^+2 release induced by divalent cations. […] release from S. purpuratus homogenates (1.25% ) was measured using Fluo 3 as Ca^+2 indicator. (a) Ca^+2 release was induced by 75 nM cADPR in the absence of 8-amino-cADPR (-8-NH2). Prior addition of 50 nM 8-amino-cADPR (+8 NH2) prohibited cADPR (75 nM) from releasing Ca^+2. (b) In the presence of 30 nM cADPR, addition of 0.4 nmol of Ca^+2 (arrow labeled Ca) induced further Ca^+2 release (-8-NH2). Prior addition of 50 nM 8-amino-cADPR blocked cADPR from potentiating the Ca^+2 induced Ca^+2 release (+8-NH2). (c) In the presence of 30 nM cADPR, addition of 2 nmol of Sr^+2 (arrow labeled Sr) induced further Ca^ +2 release (-8-NH2). […]
# as §3
# [7] = system: cADPR-sensitive release; settings: pharmacological blockers of CICR; cited from earlier work
# [8] = system: specific microsomal binding site for cADPR; settings: cited from earlier work
compound,measurement,setting,value
N=c1c2nc(Br)n3c2ncn1[C@@H]1O[C@H](COP(=O)(O)OP(=O)(O)OC[C@H]2O[C@@H]3[C@H](O)[C@@H]2O)[C@@H](O)[C@H]1O [8-Br-cADPR],"concentrations required for antagonism, compared with 8-amino-cADPR",[1]; 40 nM cADPR,required micromolar concentrations
same,Ca^+2 release caused by the analog itself,"[1]; 1 to 3.5 uM, L. pictus homogenates 2.5%",did not release
same,blockage of Ca^+2 release induced by 40 nM cADPR,"[1]; prior addition of increasing concentrations, 1 to 3.5 uM",progressive blockage
N=c1c2nc(N)n3c2ncn1[C@@H]1O[C@H](COP(=O)(O)OP(=O)(O)OC[C@H]2O[C@@H]3[C@H](O)[C@@H]2O)[C@@H](O)[C@H]1O [8-amino-cADPR],block of Ca^+2 release induced by a high concentration of caffeine,"[2]; 100 nM antagonist, 2.5 mM caffeine, data not shown",did not block
same,inhibition of cADPR (20 nM) potentiation of caffeine (1 mM) induced Ca^+2 release,[2]; prior addition of 10 nM antagonist,substantial inhibition
same,inhibition of cADPR (20 nM) potentiation of caffeine (1 mM) induced Ca^+2 release,[2]; prior addition of 100 nM antagonist,completely blocked
same,effect on the concentration-response curve of cADPR,[3]; 100 nM 8-amino-cADPR present,shifted the concentration-response curve toward higher concentrations of cADPR
same,pIC50,"[3]; 135 nM cADPR, read-out: concentration of antagonist at which the rate of Ca^+2 release induced by cADPR was reduced by half",~8.05
same,block of Ca^+2 release induced by cADPR,[3]; 150 nM analog added before 135 nM cADPR,virtually complete
same,Ca^+2 release caused by the analog itself,"[3]; 150 nM final concentration, egg homogenates 1.25%",did not cause any
same,kind of antagonism of cADPR,[3]; inhibition overcome by increasing cADPR,reversible antagonist
same,block of Ca^+2 release induced by 75 nM cADPR,[3]; prior addition of 50 nM antagonist,total blockage
same,effect on ongoing Ca^+2 release when added after release had commenced,"[3]; release activated by 95 nM cADPR, 100 nM antagonist",almost total cessation
same,competition for the [32P]cADPR binding sites,"[4]; L. pictus egg microsomes, compared with unlabeled cADPR",as effective as cADPR itself
same,effect of antagonist on the Ca^+2 release activity of ryanodine,[5]; 100 nM antagonist,slightly stimulated
same,inhibition of Ca^+2 release induced by ryanodine,[5]; 100 nM antagonist,did not inhibit
same,stimulated Ca^+2 release after 0.4 nmol Ca^+2 in the presence of 30 nM cADPR,[6]; 50 nM antagonist added before cADPR,absent
same,stimulated Ca^+2 release after Sr^+2 in the presence of 30 nM cADPR,"[6]; prior addition of 50 nM antagonist, 2 nmol Sr^+2",blocked
[N-]=[N+]=Nc1nc2c(=N)n3cnc2n1[C@@H]1O[C@H](COP(=O)(O)OP(=O)(O)OC[C@H]2O[C@@H]3[C@H](O)[C@@H]2O)[C@@H](O)[C@H]1O [8-azido-cADPR],antagonist potency rank,[1]; data not shown,between that of 8-amino-cADPR and 8-Br-cADPR
"N=c1c2ncn3c2ncn1[C@@H]1O[C@H](COP(=O)(O)OP(=O)(O)OC[C@H]2O[C@@H]3[C@H](O)[C@@H]2O)[C@@H](O)[C@H]1O [cADPR, Cyclic ADP-ribose, reference compound]",potentiation of caffeine (1 mM) induced Ca^+2 release,"[2]; 20 nM cADPR, not sufficient to release Ca^+2 by itself",greatly increased the caffeine sensitivity
same,pEC50,"[3]; in the absence of the analog, read-out: half-maximal concentration for Ca^+2 release",~7.05
same,pKd,"[4]; dialyzed L. pictus homogenates, 0-5 C, no ATP, read-out: apparent affinity constant derived from the binding data",~9.00
"Cn1c(=O)c2c(ncn2C)n(C)c1=O [caffeine, reference compound]",Ca^+2 release by caffeine alone,"[2]; 1 mM caffeine, absence of cADPR",did not produce any
CCN(CC)CCOC(=O)c1ccc(N)cc1 [procaine],effect on the cADPR-sensitive release,[7],specifically inhibit
N.N.N.N.N.N.N.N.N.N.N.N.N.N.[Cl-].[Cl-].[Cl-].[Cl-].[Cl-].[Cl-].[O-2].[O-2].[Ru+3].[Ru+3].[Ru+4] [ruthenium red],effect on the cADPR-sensitive release,[7],specifically inhibit
inositol trisphosphate,"competition for the specific microsomal binding site for cADPR, relative to cADPR",[8],at least a thousand times less effectively than cADPR
ryanodine [reference compound],Ca^+2 release on addition to egg homogenates,[5]; ryanodine alone,concentration-dependent release
